This is an account of results in the NIST ThermoML archive (doi:10.1016/j.jct.2011.04.015).

Data set [1] in a line: Molar enthalpy of transition or fusion. Conditions: Crystal; DSC.
For data set [2] the following is noted: Crystal; DTA.
Data set [3] in a line: molar enthalpy of vaporization or sublimation. Conditions: 298.15 K; Crystal; Static calorimetry.

± gives the expanded uncertainty stated by the source.

As for `O=c1ccc2ccc(O)cc2o1` [7-hydroxy-2H-chromen-2-one], in data set [1], the “Molar enthalpy of transition or fusion” value stood at 31.2 ± 0.7 kJ/mol. Further, the Triple point temperature in data set [2] was 503.74 ± 0.39 K. In data set [3], the molar enthalpy was 134 ± 3 kJ/mol.
